Measured values as given in patent US20240246935A1 (Plexium, Inc., priority 2021, published 2024).

Biological target: human E3 ligase component cereblon (CRBN) (Homo sapiens (Human), UniProt Q96SW2)
Assay: Cereblon (CRBN) target engagement, NanoBRET TE Intracellular E3 Ligase Assay in transfected HEK-293T cells
Conditions: read-out: CRBN Binding EC50
Experimental: HEK293T cells were harvested ca. 75% confluent with trypsin and plated (500,000 cells/well) in a 6-well tissue culture plate in 2 mL of Dulbecco's Modified Eagle Medium (DMEM)+10% Fetal Bovine Serum (FBS) and incubated overnight at 37° C.
The NanoLuc-CRBN fusion vector (Nluc-CRBN; Promega) contains the coding region of human E3 ligase component cereblon (CRBN) fused to the C-terminus of the NanoLuc luciferase coding region. A mixture of 10 ng Nluc-CRBN and 990 ng DDB1 Expression Vector (Promega) was added to 125 μL Opti-Minimum Essential Medium (Opti-MEM™; Thermo Fisher) along with 2 μL P3000 reagent (Thermo Fisher) in a 1.5 mL epppendorf tube. This solution was added to Lipofectamine 3000 transfection reagent (5 μL; Thermo Fisher) in Opti-MEM (125 μL), mixed well, and incubated for 15 minutes at room temperature. The transfection mixture was added dropwise to cells and incubated overnight at 37° ° C., 5% CO2. Following transfection, cells were washed once with PBS, and trypsin (250 μL) was added and incubated 30-45 sec to dislodge cells. Complete media (2 mL) was added to resuspend cells to form a single cell suspension. Cells were centrifuged at 320×g for 5 min at room temperature, the supernatant was removed, and the cell pellet resuspended in Opti-MEM (3 mL; wash step repeated×2). After final resuspension in 5 mL Opti-MEM, cells were counted and resuspended at 200,000 cells/mL in Opti-MEM.
Cereblon target engagement was monitored by Bioluminescence Resonance Energy Transfer (BRET) in transfected HEK-293T cells using the NanoBRET TE Intracellular E3 Ligase Assay (Promega). Briefly, 384-well plates (white opaque plates, Corning 3574, low binding surface) were seeded with transfected HEK-293T cells (38 μL/well). 2 μL of 10 μM CRBN tracer (diluted 1:5 in Tracer Dilution Buffer) was added to each well. Plates were centrifuged at 320×g for 1 min at room temperature. Test compounds were added in a 11-point dilution series (typically 10 μM to […]) using a TECAN D300e Digital Dispenser. Plates were shaken for 2 minutes on a microplate shaker to mix compounds. Plates were centrifuged at 320×g for 1 min at room temperature, and subsequently incubated for 2 hours at 37° C.
After incubation, plates were allowed to cool to room temperature for 15 minutes. 20 μL of 3× Complete NanoBRET™ Nano-Glo® Substrate plus Inhibitor Solution (Promega, 1:166 Substrate and 1:500 dilution of Extracellular NanoLuc® Inhibitor diluted in Opti-MEM) were added to each well. Plates were incubated with shaking at room temperature for 3 minutes covered with foil. Plates were read on a CLARIOstar microplate reader (BMG LabTech), measuring at 450 nm (donor emission) and 610 nm (acceptor emission). The IC50 values were determined by regression to best fit four-parameter logistic curves using GraphPad Prism.

human E3 ligase component cereblon (CRBN), sequence (Q96SW2 whole entry): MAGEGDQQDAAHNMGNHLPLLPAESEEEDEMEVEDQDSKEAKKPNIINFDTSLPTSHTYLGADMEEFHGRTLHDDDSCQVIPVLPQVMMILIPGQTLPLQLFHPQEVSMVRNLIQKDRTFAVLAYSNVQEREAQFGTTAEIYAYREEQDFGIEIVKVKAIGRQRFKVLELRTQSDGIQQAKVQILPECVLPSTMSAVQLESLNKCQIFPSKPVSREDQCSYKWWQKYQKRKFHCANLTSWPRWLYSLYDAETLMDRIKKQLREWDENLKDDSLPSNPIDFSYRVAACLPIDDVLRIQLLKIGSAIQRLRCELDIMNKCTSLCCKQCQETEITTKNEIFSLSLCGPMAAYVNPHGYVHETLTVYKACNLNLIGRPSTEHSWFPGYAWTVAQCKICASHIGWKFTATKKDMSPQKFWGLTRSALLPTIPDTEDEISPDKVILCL
human E3 ligase component cereblon (CRBN), sequence (Q16531 whole entry partner): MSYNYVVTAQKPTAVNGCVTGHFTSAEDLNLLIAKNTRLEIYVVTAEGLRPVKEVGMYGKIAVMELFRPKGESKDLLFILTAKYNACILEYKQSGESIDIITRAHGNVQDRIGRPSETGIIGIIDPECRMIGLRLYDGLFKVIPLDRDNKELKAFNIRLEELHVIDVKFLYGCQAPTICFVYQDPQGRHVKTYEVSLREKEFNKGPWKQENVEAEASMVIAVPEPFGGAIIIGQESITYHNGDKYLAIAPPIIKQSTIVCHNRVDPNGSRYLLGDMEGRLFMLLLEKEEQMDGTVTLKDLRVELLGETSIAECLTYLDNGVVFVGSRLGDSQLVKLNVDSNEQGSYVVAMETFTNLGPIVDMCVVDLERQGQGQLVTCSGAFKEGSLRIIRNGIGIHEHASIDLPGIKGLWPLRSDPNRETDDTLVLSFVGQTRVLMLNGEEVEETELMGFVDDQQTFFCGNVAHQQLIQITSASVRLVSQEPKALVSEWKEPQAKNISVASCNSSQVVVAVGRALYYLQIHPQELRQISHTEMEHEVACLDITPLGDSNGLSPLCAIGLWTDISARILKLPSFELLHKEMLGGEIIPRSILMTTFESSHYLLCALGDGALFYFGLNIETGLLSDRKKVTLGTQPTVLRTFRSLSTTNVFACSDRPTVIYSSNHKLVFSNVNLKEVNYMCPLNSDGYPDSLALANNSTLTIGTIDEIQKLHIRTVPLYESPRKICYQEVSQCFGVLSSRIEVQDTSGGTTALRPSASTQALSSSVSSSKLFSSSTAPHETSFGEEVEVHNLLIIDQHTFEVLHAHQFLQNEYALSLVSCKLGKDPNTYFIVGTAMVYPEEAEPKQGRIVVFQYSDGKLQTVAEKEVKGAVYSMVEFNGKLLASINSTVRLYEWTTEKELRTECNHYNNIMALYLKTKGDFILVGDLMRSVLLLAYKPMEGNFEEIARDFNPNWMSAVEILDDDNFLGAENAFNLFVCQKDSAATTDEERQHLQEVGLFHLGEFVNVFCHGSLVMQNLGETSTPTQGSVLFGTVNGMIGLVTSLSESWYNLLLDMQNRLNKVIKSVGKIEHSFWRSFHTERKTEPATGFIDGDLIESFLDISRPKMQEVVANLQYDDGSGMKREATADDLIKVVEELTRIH

Compound	EC50 [µM]
N#Cc1ccc(C2CN([C@H]3CCCC[C@H]3Oc3ccc4c(c3)CN(C35CC(C3)C(=O)NC5=O)C4=O)C2)cc1 (racemic) [Compound 92, Rac-4-(1-((cis)-2-((2-(2,4-dioxo-3-azabicyclo[3.1.1]heptan-1-yl)-1-oxoisoindolin-5-yl)oxy)cyclohexyl)azetidin-3-yl)benzonitrile]	> 10
N#Cc1ccccc1C1CN([C@H]2CCCC[C@H]2Oc2ccc3c(c2)CN(C24CC(C2)C(=O)NC4=O)C3=O)C1 (racemic) [Compound 94, Rac-2-(1-((cis)-2-((2-(2,4-dioxo-3-azabicyclo[3.1.1]heptan-1-yl)-1-oxoisoindolin-5-yl)oxy)cyclohexyl)azetidin-3-yl)benzonitrile]	> 10

More lines, now with the values ahead:

EC50 [µM]	Compound
> 10	N#Cc1cc(F)ccc1C1CN([C@@H]2CCC[C@@H]2Oc2ccc3c(c2)CN(C24CC(C2)C(=O)NC4=O)C3=O)C1 (racemic) [Compound 70, Rac-2-(1-((cis)-2-((2-(2,4-dioxo-3-azabicyclo[3.1.1]heptan-1-yl)-1-oxoisoindolin-5-yl)oxy)cyclopentyl)azetidin-3-yl)-5-fluorobenzonitrile]
> 10	N#Cc1cccc(C2CN([C@H]3CCCC[C@H]3Oc3ccc4c(c3)CN(C35CC(C3)C(=O)NC5=O)C4=O)C2)c1 (racemic) [Compound 77, Rac-3-(1-((cis)-2-((2-(2,4-dioxo-3-azabicyclo[3.1.1]heptan-1-yl)-1-oxoisoindolin-5-yl)oxy)cyclohexyl)azetidin-3-yl)benzonitrile]
> 10	N#Cc1cccc(C2CN([C@H]3CCCC[C@@H]3Oc3ccc4c(c3)CN(C35CC(C3)C(=O)NC5=O)C4=O)C2)c1 (racemic) [Compound 78, Rac-3-(1-((trans)-2-((2-(2,4-dioxo-3-azabicyclo[3.1.1]heptan-1-yl)-1-oxoisoindolin-5-yl)oxy)cyclohexyl)azetidin-3-yl)benzonitrile]
> 10	N#Cc1ccc(C2CN([C@H]3CCCC[C@H]3Oc3ccc4c(c3)CN(C35CC(C3)C(=O)NC5=O)C4=O)C2)c(F)c1 (racemic) [Compound 90, Rac-4-(1-((cis)-2-((2-(2,4-dioxo-3-azabicyclo[3.1.1]heptan-1-yl)-1-oxoisoindolin-5-yl)oxy)cyclohexyl)azetidin-3-yl)-3-fluorobenzonitrile]
> 10	N#Cc1ccc(C2CN([C@H]3CCCC[C@@H]3Oc3ccc4c(c3)CN(C35CC(C3)C(=O)NC5=O)C4=O)C2)c(F)c1 (racemic) [Compound 91, Rac-4-(1-((trans)-2-((2-(2,4-dioxo-3-azabicyclo[3.1.1]heptan-1-yl)-1-oxoisoindolin-5-yl)oxy)cyclohexyl)azetidin-3-yl)-3-fluorobenzonitrile]
> 10	N#Cc1ccc(C2CN([C@H]3CCCC[C@@H]3Oc3ccc4c(c3)CN(C35CC(C3)C(=O)NC5=O)C4=O)C2)cc1 (racemic) [Compound 93, Rac-4-(1-((trans)-2-((2-(2,4-dioxo-3-azabicyclo[3.1.1]heptan-1-yl)-1-oxoisoindolin-5-yl)oxy)cyclohexyl)azetidin-3-yl)benzonitrile]

Test system: IKZF2 (Helios)
Assay: IKZF2 reporter degradation assay (HEK 293T IKZF2-mNeonGreen reporter cell line)
Type: cell-based, human
Conditions: 1 μM compound, 24 hour incubation, HEK 293T IKZF2-mNeonGreen reporter
From the text: Polycistronic plasmids were constructed for the mammalian expression of fluorescent reporter fusions of human transcription factors IKZF1 (Ikaros), IKZF2 (Helios), and IKZF3 (Aiolos). The respective protein sequences had their C-terminal end joined to a GGGGS linker repeated three times followed by mNeonGreen, P2A sequence, and mScarlet. The DNA sequences of the open reading frames are as follows:
IKZF1, IKZF2, and IKZF3 constructs were cloned into the UCOE Hygromycin expression vectors (Millipore Sigma). Reporter constructs were transfected using cationic lipid reagents into adherent HEK 293T cells and stable integrants were selected by treatment with 200 μg/mL hygromycin B. Clonal populations were obtained from the population of stable integrants either by limiting dilution or fluorescence activated cell sorting.
The clonal stable cell lines were maintained under constant 200 μg/mL hygromycin B selection while being passaged for use in the degradation assays. […] The fluorescence intensity of the IKZF1/2/3-mNeonGreen (FITC channel) and mScarlet (PE channel) reporters were routinely analyzed by flow cytometry to confirm consistent expression levels between experiments.
The IKZF1/IKZF2/IKZF3 degradation assays were carried out by harvesting the HEK 293T reporter cell lines and resuspending the cells in media formulated for reduced background fluorescence (FluoroBrite; Thermo Fisher). The respective cell lines were seeded at a density of 4000 cells/well into black-walled 384-well optical grade assay tissue culture plates. The cells were incubated overnight at 37° C. to allow for attachment to the assay plate. Dilutions of the compounds were prepared in DMSO from 10 mM compound stocks. The assay plates were treated with appropriate concentrations of the compounds by dispensing the DMSO dilutions in quadruplicate wells with an upper limit of 0.5% final DMSO.
After 24 hour incubation with the compounds, the assay plates were imaged on an ImageXpress Pico microscopy system (cells maintained at 37° C. during imaging) to obtain the fluorescent readouts. The assay plates were imaged in the FITC and Tetramethylrhodamine (TRITC) channels to obtain the mNeonGreen fluorescence intensity (reporter degradation data) and mScarlet fluorescence intensity (for cell segmentation). 293T-IKZF1 and 293T-IKZF3 reporter cell lines were imaged with exposures of 500 milliseconds (ms) for both FITC and TRITC channels, while the 293T-IKZF2 reporter cell line was imaged with exposures of 1000 ms for FITC and 1250 ms for TRITC. The resulting data was analyzed with Cell Reporter Xpress software using the 2-channel cell scoring analysis with a “percent positive” readout. The TRITC channel was selected for the “nuclei” segmentation with a threshold of 20 while the FITC channel was selected for the “Marker 1” segmentation and a threshold of 100 for the IKZF1 and IKZF3 reporter lines. […] The minimum segmentation width was set to 6 micrometers and the maximum segmentation width was set to 15 micrometers for all cell lines. The DCs calculations were determined by regression to best fit four-parameter logistic curves using GraphPad Prism.

Compound	IKZF2 % Degradation @ 1 μM [%]
O=C1CCC(N2Cc3cc(O[C@H]4CCC[C@@H]4N4CC(c5cccc(F)c5)C4)ccc3C2=O)C(=O)N1 (stereo partly drawn) [Compound 88, 3-(5-(((1S,2S)-2-(3-(3-fluorophenyl)azetidin-1-yl)cyclopentyl)oxy)-1-oxoisoindolin-2-yl)piperidine-2,6-dione]	71.4
O=C1CCC(N2Cc3cc(O[C@H]4CCCC[C@@H]4N4CC(c5ccc(F)cc5Cl)C4)ccc3C2=O)C(=O)N1 (stereo partly drawn) [Compound 103, 3-(5-(((1S,2S)-2-(3-(2-chloro-4-fluorophenyl)azetidin-1-yl)cyclohexyl)oxy)-1-oxoisoindolin-2-yl)piperidine-2,6-dione]	73.4
O=C1CCC(N2Cc3cc(O[C@H]4CCC[C@@H]4N4CC(c5ccc(F)cc5Cl)C4)ccc3C2=O)C(=O)N1 (stereo partly drawn) [Compound 104, 3-(5-(((1S,2S)-2-(3-(2-chloro-4-fluorophenyl)azetidin-1-yl)cyclopentyl)oxy)-1-oxoisoindolin-2-yl)piperidine-2,6-dione]	71.2
